In paper PMC7914897, “Cytotoxic Potential of a-Azepano- and 3-Amino-3,4-SeCo-Triterpenoids” (International Journal of Molecular Sciences, 2021):

Key:
LOX IMVI (Melanoma) = assay: NCI-60 screen (SRB, 48 h); format: cell-based; conditions: Homo sapiens
OVCAR-4 (Ovarian cancer) = assay: NCI-60 screen (SRB, 48 h); format: cell-based; conditions: Homo sapiens
BT-549 (Breast cancer) = assay: NCI-60 screen (SRB, 48 h); format: cell-based; conditions: Homo sapiens
NSC lung cancer subpanel = assay: NCI-60 screen, subpanel; conditions: Homo sapiens
Colon Cancer subpanel = assay: NCI-60 screen, subpanel; conditions: Homo sapiens
K-562 (Leukemia) = assay: NCI-60 screen (SRB, 48 h); conditions: Homo sapiens
HOP-92 (NSC lung cancer) = assay: NCI-60 screen (SRB, 48 h); conditions: Homo sapiens
[1] = tested on: NCI-H522 (NSC lung cancer); assay: NCI-60 screen (SRB, 48 h); conditions: Homo sapiens
HCT-116 (Colon cancer) = assay: NCI-60 screen (SRB, 48 h); conditions: Homo sapiens
HCT-15 (Colon cancer) = assay: NCI-60 screen (SRB, 48 h); conditions: Homo sapiens, HCT-15
HT29 (Colon cancer) = assay: NCI-60 screen (SRB, 48 h); conditions: Homo sapiens
KM12 (Colon cancer) = assay: NCI-60 screen (SRB, 48 h); conditions: Homo sapiens
SF-295 (CNS cancer) = assay: NCI-60 screen (SRB, 48 h); conditions: Homo sapiens
UACC-257 (Melanoma) = assay: NCI-60 screen (SRB, 48 h); conditions: Homo sapiens
IGROV1 (Ovarian cancer) = assay: NCI-60 screen (SRB, 48 h)
[2] = tested on: NCI/ADR-RES (Ovarian cancer); assay: NCI-60 screen (SRB, 48 h); conditions: Homo sapiens
A498 (Renal cancer) = assay: NCI-60 screen (SRB, 48 h); conditions: Homo sapiens
RXF 393 (Renal cancer) = assay: NCI-60 screen (SRB, 48 h); conditions: Homo sapiens
UO-31 (Renal cancer) = assay: NCI-60 screen (SRB, 48 h); conditions: Homo sapiens
DU-145 (Prostate cancer) = assay: NCI-60 screen (SRB, 48 h); conditions: Homo sapiens
T-47D (Breast cancer) = assay: NCI-60 screen (SRB, 48 h); conditions: Homo sapiens, T47D

Q: What does the source list for `C=C(C)[C@@H]1CC[C@]2(COS(=O)(=O)c3ccc(C)cc3)CC[C@]3(C)[C@@H](CC[C@@H]4[C@@]5(C)CCCNC(C)(C)[C@@H]5CC[C@]43C)[C@@H]12` [Compound 12]?
A: activity at 10 µM (LOX IMVI (Melanoma); 48 h, 1 dose 10 µM, read-out: Growth % of the Most Sensitive Cell Lines): -86.5%; GI50 (LOX IMVI (Melanoma); read-out: GI50): 1.72 µM; IC (TGI) (OVCAR-4 (Ovarian cancer); OVCAR-4, 48 h): 3.38 µM; GI50 (OVCAR-4 (Ovarian cancer); OVCAR-4, read-out: GI50): 1.86 µM; GI50 (BT-549 (Breast cancer); BT-549): 1.84 µM; IC (TGI) (BT-549 (Breast cancer); BT-549, 48 h): 3.56 µM; IC (TGI) (NSC lung cancer subpanel; 48 h, read-out: TGI MG_MID): 3.25 µM; GI50 (NSC lung cancer subpanel; read-out: GI50 MG_MID): 1.71 µM; IC (TGI) (Colon Cancer subpanel; 48 h, read-out: TGI MG_MID): 3.37 µM; GI50 (Colon Cancer subpanel; read-out: GI50 MG_MID): 1.73 µM; GI50 (K-562 (Leukemia); K562): 1.57 µM; CC50 (K-562 (Leukemia); K562, read-out: LC50): > 100 µM; GI50 (HOP-92 (NSC lung cancer); HOP-92): 1.54 µM; IC (TGI) (HOP-92 (NSC lung cancer); HOP-92, 48 h, read-out: TGI): 3.01 µM; GI50 ([1]; NCI-H522): 1.7 µM; IC (TGI) ([1]; NCI-H522, 48 h, read-out: TGI): 3.23 µM; GI50 (HCT-116 (Colon cancer); HCT-116): 1.79 µM; IC (TGI) (HCT-116 (Colon cancer); HCT-116, 48 h, read-out: TGI): 3.33 µM; GI50 (HCT-15 (Colon cancer)): 1.38 µM; GI50 (HT29 (Colon cancer); HT-29): 1.93 µM; IC (TGI) (HT29 (Colon cancer); HT-29, 48 h, read-out: TGI): 3.5 µM; GI50 (KM12 (Colon cancer); KM12): 1.84 µM; IC (TGI) (KM12 (Colon cancer); KM12, 48 h, read-out: TGI): 3.41 µM; GI50 (SF-295 (CNS cancer); SF-295): 1.6 µM; IC (TGI) (SF-295 (CNS cancer); SF-295, 48 h, read-out: TGI): 3.01 µM; GI50 (UACC-257 (Melanoma); UACC-257): 1.97 µM; IC (TGI) (UACC-257 (Melanoma); UACC-257, 48 h, read-out: TGI): 3.65 µM; GI50 (IGROV1 (Ovarian cancer); Homo sapiens, IGROV-1): 1.84 µM; Growth % of the Most Sensitive Cell Lines (IGROV1 (Ovarian cancer); IGROV1, 1 dose 10 µM): −87.10%; GI50 [2]: 1.74 µM; GI50 (A498 (Renal cancer); A498): 1.63 µM; IC (TGI) (A498 (Renal cancer); A498, 48 h, read-out: TGI): 3.14 µM; CC50 (A498 (Renal cancer); A498, read-out: LC50): 6.04 µM; GI50 (RXF 393 (Renal cancer); RXF 393): 1.62 µM; IC (TGI) (RXF 393 (Renal cancer); RXF 393, 48 h, read-out: TGI): 3.13 µM; GI50 (UO-31 (Renal cancer); UO-31): 1.64 µM; IC (TGI) (UO-31 (Renal cancer); UO-31, 48 h, read-out: TGI): 3.04 µM; GI50 (DU-145 (Prostate cancer); DU-145): 1.77 µM; IC (TGI) (DU-145 (Prostate cancer); DU-145, 48 h, read-out: TGI): 3.3 µM; GI50 (T-47D (Breast cancer)): 1.57 µM; IC (TGI) (T-47D (Breast cancer); 48 h, read-out: TGI): 3.15 µM
